Patent publication US20210040111A1, “DRUGS TO TREAT OCULAR DISORDERS” (Graybug Vision, Inc., priority 2018, published 2021)
In brackets after ≈: the same amount, converted by molar mass. Read-outs that look alike come from different tables or passages of the source.

Columns and labels:
[1] = Determination of prodrug solubility (50 mg/mL target, HPLC of supernatant); assay type: physicochemical; conditions: thermodynamic from solid
Description: For each test, approximately 5-10 mg was transferred to a 10 mL glass vial. Aqueous or organic solvent was added to each vial to achieve an overall concentration of 50 mg/mL. After vortexing aggressively for 2-3 minutes and sonicating in a bath sonicator for 5 minutes, undissolved drug was spun down at 1200×g for 5 minutes to generate a pellet. The supernatant was collected and filtered through a 0.2 μm nylon syringe filter into HPLC vials for drug content analysis. Drug concentration was determined by comparing against a standard calibration curve.

African green monkeys = conditions: monkey, in vivo
[2] = DMSO, organic solvent or mixture, read-out: Solubility DMSO
[3] = organic solvent or mixture, DCM (dichloromethane), read-out: Solubility DCM
[4] = water, read-out: Solubility Water

SMILES	solubility [1, 2] [mg/mL]	solubility [1, 3] [mg/mL]	solubility [1, 4] [mg/mL]	Ocular toxicity findings (African green monkeys)
CCCCNc1cc(C(=O)O)cc(S(N)(=O)=O)c1Oc1ccccc1 [Bumetanide, reference compound]	25 (≈ 68.6 mM)	25 (≈ 68.6 mM)	< 0.1	No ocular toxicity findings
CCOC(=O)[C@H](C)OC(=O)[C@H](C)OC(=O)[C@H](C)OC(=O)[C@H](C)OC(=O)c1cc(S(N)(=O)=O)c(Cl)cc1NCc1ccco1 [Compd 1, furosemide-ethyl-PLA (n=4)]	> 100	> 50	< 0.1	–
CCCCNc1cc(C(=O)O[C@@H](C)C(=O)O[C@@H](C)C(=O)O[C@@H](C)C(=O)O[C@@H](C)C(=O)OCC)cc(S(N)(=O)=O)c1Oc1ccccc1 [Compound 2, bumetanide-ethyl-PLA (n=4)]	> 100	> 50	< 0.1	–
CCOC(=O)[C@H](C)OC(=O)[C@H](C)OC(=O)[C@H](C)OC(=O)[C@H](C)OC(=O)[C@H](C)OC(=O)[C@H](C)OC(=O)c1cc(S(N)(=O)=O)c(Cl)cc1NCc1ccco1 [Compound 5, furosemide-ethyl-PLA (n=6)]	> 100	> 50	< 0.1	–
